Assay results reported in patent publication US20200123175A1, “NOVEL ISOTHIAZOLO-BASED BICYCLES, PROCESSES FOR THEIR PREPARATION AND THEIR USE AS HERBICIDES AND/OR PLANT GROWTH REGULATORS” (Bayer CropScience Aktiengesellschaft, priority 2017, published 2020).

Experiments:
Conditions in all cases: dosage 320 g/ha
AMARE [1] = assay: Herbicidal action post-emergence (PO); format: in vivo, Amaranthus retroflexus
VIOTR [2] = assay: Herbicidal action post-emergence (PO); format: in vivo, Viola tricolor
SETVI [3] = assay: Herbicidal action pre-emergence (PE); format: in vivo, Setaria viridis
ECHCG = assay: Herbicidal action pre-emergence (PE); format: in vivo, Echinochloa crus-galli
ABUTH = assay: Herbicidal action post-emergence (PO); format: in vivo, Abutilon theophrasti
VIOTR [4] = assay: Herbicidal action pre-emergence (PE); format: in vivo, Viola tricolor
MATIN = assay: Herbicidal action pre-emergence (PE); format: in vivo, Matricaria inodora
POLCO = assay: Herbicidal action pre-emergence (PE); format: in vivo, Polygonum convolvulus
AMARE [5] = assay: Herbicidal action pre-emergence (PE); format: in vivo, Amaranthus retroflexus
PHBPU = assay: Herbicidal action post-emergence (PO); format: in vivo, Pharbitis purpurea
SETVI [6] = assay: Herbicidal action post-emergence (PO); format: in vivo, Setaria viridis

SMILES | AMARE (AMARE [1]) | VIOTR (VIOTR [2]) | SETVI (SETVI [3]) | ECHCG (ECHCG) | ABUTH (ABUTH) | VIOTR (VIOTR [4]) | MATIN (MATIN) | POLCO (POLCO) | AMARE (AMARE [5]) | PHBPU (PHBPU) | SETVI (SETVI [6])
O=C(Nc1nsc2c(=O)n(CC3CCCCC3)cnc12)C(F)(F)C(F)(F)C(F)(F)F [Example I-58] | 100 | 100 | 100 | 100 | 90 | 100 | 90 | 90 | 100 | – | –
O=C(Nc1nsc2c(=O)n(Cc3ccc(F)cc3F)cnc12)C(F)(F)F [Example I-85] | 100 | 100 | 100 | 100 | 80 | 100 | 100 | 100 | 100 | 100 | 100
Nc1nsc2c1NCN(CC1CCCCC1)C2=O [Example I-61] | 100 | 100 | 100 | 100 | 100 | 100 | 100 | 100 | 100 | 90 | 100
O=C(Nc1nsc2c(=O)n(CC3CCCCC3)cnc12)C(F)(Cl)C(F)(F)F (stereo not shown) [Example I-67] | – | – | 100 | 100 | – | 100 | 100 | 100 | 100 | – | –
CCCC(=O)Nc1nsc2c(=O)n(CC3CCCCC3)cnc12 [Example I-45] | 100 | 90 | 100 | 100 | 100 | 100 | 100 | 100 | 100 | – | –
Nc1nsc2c1NCN(CC1CCCCCC1)C2=O [Example I-59, 3-amino-6-(cycloheptylmethyl)-4,5-dihydroisothiazolo[4,5-d]pyrimidin-7-one] | 100 | 100 | 100 | 100 | 100 | 100 | 100 | 100 | 100 | 100 | 100
Nc1nsc2c(=O)n(CC3=CCCCC3)cnc12 [Example I-29] | 100 | 100 | 100 | 100 | 80 | 100 | 100 | 100 | 100 | 80 | 100
O=C(CC(F)(F)F)Nc1nsc2c(=O)n(Cc3ccc(F)cc3F)cnc12 [Example I-82] | – | – | 100 | 100 | – | 100 | 100 | 100 | 100 | – | –
O=C(CCl)Nc1nsc2c(=O)n(CC3CCCCC3)cnc12 [Example I-56] | – | – | 100 | 100 | – | 100 | 90 | 100 | 100 | – | –
COC(=O)C(=O)Nc1nsc2c(=O)n(Cc3ccc(F)cc3F)cnc12 [Example I-81] | – | – | 90 | 100 | – | 100 | 100 | 100 | 100 | – | –
Nc1nsc2c(=O)n(CC3CCCCCC3)cnc12 [Example I-31] | – | – | 100 | 90 | – | 100 | 100 | 100 | 100 | – | –
O=C(Nc1nsc2c(=O)n(Cc3ccc(F)cc3F)cnc12)C(F)(F)C(F)(F)F [Example I-78] | 100 | 100 | 100 | 100 | 80 | 100 | 100 | 100 | 100 | 100 | 100
CCC(=O)Nc1nsc2c(=O)n(Cc3ccc(F)cc3F)cnc12 [Example I-84] | 100 | 100 | 100 | 100 | 100 | 100 | 100 | 100 | 100 | 100 | 100
COC(=O)CCC(=O)Nc1nsc2c(=O)n(CC3CCCCC3)cnc12 [Example I-72] | 100 | 90 | 100 | 100 | 100 | 100 | 100 | 100 | 100 | 100 | 90
O=C(Nc1nsc2c(=O)n(CC3CCCCC3)cnc12)C(F)(F)C(F)(F)Cl [Example I-68] | 100 | 100 | 100 | 100 | 100 | 100 | 100 | 100 | 100 | 100 | 100
COCC(=O)Nc1nsc2c(=O)n(Cc3ccc(F)cc3F)cnc12 [Example I-83] | – | – | 100 | 100 | – | 100 | 100 | 90 | 100 | – | –
Nc1nsc2c1NCN(Cc1ccc(F)cc1F)C2=O [Example I-42] | 100 | 100 | 100 | 100 | 80 | 100 | 100 | 100 | 100 | 100 | 100
CC(c1ccccc1)n1cnc2c(NC(=O)C3CC3)nsc2c1=O (stereo not shown) [Example I-40] | 100 | 100 | – | – | 100 | – | – | – | – | 100 | 90
Nc1nsc2c(=O)n(CC3CCCCC3)cnc12 [Example I-17] | 100 | 100 | 100 | 100 | 90 | 100 | 100 | 100 | 100 | 100 | 100
CC(=O)Nc1nsc2c(=O)n(CC3CCCCC3)cnc12 [Example I-55] | 100 | 100 | 100 | 100 | 100 | 100 | 100 | 100 | 100 | – | –
Cc1nn(CC2CCCCC2)c(=O)c2snc(N)c12 [Example I-75, 3-amino-6-(cyclohexylmethyl)-4-methyl-isothiazolo[4,5-d]pyridazin-7-one] | – | – | 100 | 90 | – | 90 | 90 | 90 | 100 | – | –
O=C(Nc1nsc2c(=O)n(Cc3ccc(F)cc3F)cnc12)C(F)(F)C(F)(F)Cl [Example I-76] | 100 | 100 | 100 | 90 | 80 | 100 | 100 | 100 | 100 | – | –
O=C(Nc1nsc2c(=O)n(CC3CCCCC3)cnc12)C(F)(F)C(F)(F)F [Example I-57] | 100 | 100 | 100 | 100 | 100 | 100 | 100 | 100 | 100 | – | –
O=C(CC(F)(F)F)Nc1nsc2c(=O)n(CC3CCCCC3)cnc12 [Example I-73] | 100 | 100 | 100 | 100 | 100 | 100 | 100 | 100 | 100 | – | –
Nc1nsc2c1NCN(Cc1ccc(F)cc1)C2=O [Example I-64] | 100 | 80 | 100 | 100 | 90 | 100 | 100 | 90 | 100 | – | –
O=C(Nc1nsc2c(=O)n(Cc3ccc(F)cc3F)cnc12)C(F)(Cl)C(F)(F)F (stereo not shown) [Example I-77] | – | – | 100 | 80 | – | 100 | 100 | 100 | 100 | – | –
Nc1nsc2c1NCN(CC1CCCCO1)C2=O (stereo not shown) [Example I-43] | – | – | 90 | 100 | – | 100 | 90 | 100 | 100 | – | –
Nc1nsc2c1NCN(CC1CCCC1)C2=O [Example I-63] | 100 | 100 | 100 | 100 | 100 | 100 | 100 | 100 | 100 | – | –
CCC(=O)Nc1nsc2c(=O)n(CC3CCCCC3)cnc12 [Example I-54] | 100 | 90 | 100 | 100 | 100 | 100 | 100 | 100 | 100 | – | –
